From patent US4977144A, “Imidazo[4,5-b]pyridine derivatives as cardiovascular agents” (Ciba-Geigy Corporation, priority 1989, dated 1990)

Experiments:
[1] = molecular target: T1, adenosine-2 (A-2) receptor (Rattus norvegicus, UniProt P30543); experiment: adenosine-2 (A-2) receptor binding: inhibition of specific binding of 3H-NECA in rat striatal membrane preparations; set-up: species or system male Sprague-Dawley rats; conditions: for IC50: displacement of 4 nM 3H-NECA in the presence of 50 nM cyclopentyladenosine, rat striatal membranes, read-out: IC50 in the in vitro adenosine-2 receptor binding assay
T1 construct: striatal membrane preparations from corpus striatum of male Sprague-Dawley rats; from tissue; host or cells: corpus striatum of male Sprague-Dawley rats (membrane preparation)

[2] = test system: spontaneous hypertensive rat; experiment: blood pressure lowering effect in the spontaneous hypertensive rat on oral administration; type: in vivo; conditions: at a dose of about 10 mg/Kg p.o.
Experimental: Indicative of in vivo adenosine receptor agonist activity, the hypotensive activity of the compounds of the invention can be measured in normotensive or spontaneous hypertensive rats on intravenous or oral administration.
The blood pressure lowering effect in the spontaneous hypertensive rat is determined on oral administration as known in the art.

T1 sequence (P30543 whole entry): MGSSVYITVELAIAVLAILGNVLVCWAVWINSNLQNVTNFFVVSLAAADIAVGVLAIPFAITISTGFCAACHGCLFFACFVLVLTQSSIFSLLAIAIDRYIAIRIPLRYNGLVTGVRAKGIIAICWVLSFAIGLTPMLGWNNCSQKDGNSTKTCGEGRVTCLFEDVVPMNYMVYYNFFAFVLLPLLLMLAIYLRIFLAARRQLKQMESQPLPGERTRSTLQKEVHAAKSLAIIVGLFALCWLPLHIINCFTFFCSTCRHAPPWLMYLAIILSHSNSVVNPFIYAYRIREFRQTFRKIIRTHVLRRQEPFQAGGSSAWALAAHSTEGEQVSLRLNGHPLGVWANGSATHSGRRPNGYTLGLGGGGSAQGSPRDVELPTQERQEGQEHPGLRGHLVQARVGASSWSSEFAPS

greater potency at the A-2 receptor than at the A-1 receptor ([1]; A-2 binding versus A-1 binding)	IC50 [1]	Compound	lowers blood pressure in the spontaneous hypertensive rat model [2]
more than 100 fold	~100 nM	Nc1cc(NCCC2CCCCC2)nc2c1ncn2[C@@H]1O[C@H](CO)[C@@H](O)[C@H]1O [Example 1, 7-amino-3-β-D-ribofuranosyl-N-(2-cyclohexylethyl)-3H-imidazo[4,5-b] pyridin-5-amine]	effectively lowers blood pressure
–	~70 nM	COc1ccc(CCNc2cc(N)c3ncn([C@@H]4O[C@H](CO)[C@@H](O)[C@H]4O)c3n2)cc1 [Example 15(1)]	–
